Measurements from US8921107B2, “Method for differentiating human neural progenitor cells into dopaminergic neurons, and medium for differentiation thereof” (College of Medicine Pochon Cha University Industry-Academic …, priority 2010, dated 2014).
Entries after “also recorded” stand apart in the source; their conditions may differ.

How the values were obtained:
[1] = tested on: human neural progenitor cells (hNPCs); test: Substitution potential for SHH and FGF8 as differentiation-inducing agents; TH expression (FIG. 4); assay type: cell-based
Protocol: In order to evaluate substitution potential for the expensive SHH and FGF8 that are of limited use as a differentiation-inducing agent, hNPCs were proliferated in a DMEM/F12 (1:1) Glutamax medium. After induction of the differentiation in a Neurobasal (NB) medium (Invitrogen) using 2% of B-27, 200 ng/ml of SHH, 25 ng/ml of FGF8, 10 μM of forskolin, 100 μM of fusaric acid, and 100 μM of db-cAMP, the expression levels of TH were measured (FIG. 4).

[2] = tested on: human neural progenitor cells (hNPCs); test: Differentiation of hNPCs under hypoxia or normoxia; TH expression (FIG. 5); assay type: cell-based; details: NB medium with 2% B-27, 10 μM forskolin, 100 μM fusaric acid, 100 μM db-cAMP; 3% versus 21% oxygen partial pressure
Protocol: hNPCs were proliferated in a DMEM/F12 (1:1) Glutamax medium, and then differentiated in a Neurobasal (NB) medium (Invitrogen) containing 2% of B-27, 10 μM of forskolin, 100 μM of fusaric acid, and 100 μM of db-cAMP, under the hypoxia condition (3% of oxygen partial pressure) or the normoxia condition (21% of oxygen partial pressure). After induction of the differentiation, the expression levels of TH were measured (FIG. 5).

[3] = tested on: human neural progenitor cells (hNPCs); test: Differentiation of hNPCs into dopaminergic neurons in media with various additives; TH and Tuj1 counted with DAPI staining (FIG. 1); assay type: cell-based
Protocol: For dopaminergic differentiation, hNPCs were plated onto a culture dish pre-coated with 15 μg/ml of poly-L-ornithine and 4 μg/ml of fibronectin at a density of 30,000 cells/cm^2; and after 2 or 3 days the cells were cultured in a NB medium comprising differentiation-inducing agents such as 2% of B27 minus-AO supplement (GIBCO), 10 μM of forskolin, 1 mM of db-cAMP and […] of fusaric acid, at 37° C. for 7 days, unless otherwise described.
hNPCs were washed with PBS three times and then fixed with 4% paraformaldehyde in PBS for 10 minutes. The cells were washed with PBS three times and then blocked by reacting with 3% Normal goat serum, 0.2% Triton X-100 and 1% BSA in PBS at room temperature for 1 hour. […]
hNPCs were differentiated into dopaminergic neurons in media obtained by adding interleukin 1 beta, db-cAMP, and fusaric acid (Fus), in various concentrations and combinations, to a Neurobasal medium [differentiation medium (DM) control]. TH (a dopaminergic neuron marker) and Tuj1 (a neural marker) were measured through the DAPI staining (FIG. 1).

[4] = tested on: human neural progenitor cells (hNPCs); test: Differentiation of hNPCs in NB medium with or without 100 μM fusaric acid; TH and Tuj1 expression, immunocytochemistry and RT-PCR (FIGS. 2, 3); assay type: cell-based; details: 100 μM fusaric acid added to NB medium with 2% B-27 minus-AO, 10 μM forskolin, 1 mM db-cAMP, versus without
Protocol: Total cellular RNAs were extracted from the hNPC, using Trizol and chloroform. cDNAs were synthesized from 500 ng of the total RNAs, using RNA Superscript II RTase, Oligo-d(T) primers, DTT and dNTPs, according to the manufacturer's protocol. The PCR was performed in a final volume of 20 μl containing 1 μl of cDNA and 1 μl of 10 pM primers, using a SYBR-Green mixture. The expressions of TH, DAT, GFAP, Nurr1, Tuj1, and Lmx1a were analyzed, using RPL22 as an internal control. The quantitative real-time PCR was performed using the LightCycler System. The amplification was monitored and analyzed through measuring the binding of the fluorescent dye SYBR Green to double-stranded DNA. The target DNAs were amplified by performing total 40 cycles, under the conditions at 95° C. for 10 seconds, at 60° C. for 10 seconds, at 72° C. for 20 seconds. Final extension was performed at 72° C. for 10 minutes. Results were expressed relative to the gene RPL-22 by comparative Ct method. The primers used in the PCR are described in Table 1. […]
hNPCs were proliferated in a DMEM/F12 (1:1) Glutamax medium, and then differentiated to neurons in a Neurobasal (NB) medium containing 2% of B-27 minus-AO supplement (GIBCO), 10 μM of forskolin, and 1 mM of db-cAMP, along with or without 100 μM of fusaric acid. After induction of the differentiation, the expression levels of TH and Tuj1 were measured (FIG. 2).

[5] = tested on: TH-expressing cells (dopaminergic neurons) differentiated from hNPCs; test: Neuroprotective effect: differentiation induced in the presence of MPP (FIG. 6); assay type: cell-based, human
Text: It is known that 1-methyl-4-phenylpyridium (MPP) induces cytotoxicity on dopaminergic neurons. Therefore, we evaluated functions of fusaric acid during the differentiation, through inducing differentiation in the presence of MPP (FIG. 6).

[6] = differentiation in medium containing fusaric acid, in the presence of MPP

CCCCc1ccc(C(=O)O)nc1 [fusaric acid, 5-butylpicolinic acid]
differentiation into dopaminergic neurons (TH expression) ([1]; 100 μM fusaric acid added in addition to 200 ng/ml SHH and 25 ng/ml FGF8): more increased | differentiation into dopaminergic neurons (TH expression) ([1]; 100 μM fusaric acid instead of SHH and FGF8, NB medium, 2% B-27, 10 μM forskolin, 100 μM db-cAMP): higher differentiation potential into dopaminergic neurons; also recorded: differentiated most effectively into dopaminergic neurons | differentiation into dopaminergic neurons (TH expression), hypoxia versus normoxia [2]: differentiated more efficiently into dopaminergic neurons in hypoxia than in normoxia | expression levels of TH and Tuj1 (differentiation potential) ([3]; culture medium containing db-cAMP and fusaric acid, compared with other combinations (interleukin 1 beta, db-cAMP, fusaric acid) in Neurobasal medium): highest expression levels of TH and Tuj1 | differentiation potential by concentration ([3]; db-cAMP and fusaric acid each at 100 μM): the highest differentiation potential was obtained | expression of TH (dopaminergic neuron marker) [4]: remarkably high expressed | expression of Tuj1 (neuronal marker) [4]: also increased | neuroprotective activity ([5]; conclusion from FIG. 6, MPP treatment): has neuroprotective activity | expression of Tuj1 under MPP treatment [5, 6]: relatively more expressed | survival of TH-expressing cells under MPP treatment [5, 6]: more TH-expressing cells survived
